Read-outs that look alike come from different tables or passages of the source.
How the values were obtained:
[1] = target: CBP-bromodomain/BRD9 ZsGreen fusion protein (Homo sapiens, UniProt Q92793); assay: cell-based
BRPF1 bromodomain = target: T1, BRPF1 bromodomain (Homo sapiens, UniProt P55201); assay: Differential scanning fluorimetry; type: binding; details: BRPF1 4–8 μM, compound 20 μM; read-out: DTm
T1 construct: Differential scanning fluorimetry was carried out with the indicated isolated bromodomains at 4–8 μM
T1 sequence (P55201 628-732 limits assumed): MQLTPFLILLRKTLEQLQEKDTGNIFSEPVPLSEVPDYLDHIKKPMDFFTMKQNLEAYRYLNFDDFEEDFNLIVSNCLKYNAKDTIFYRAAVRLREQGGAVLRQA
Procedure: (§1) Variable buffer compositions were used for the different bromodomain proteins with 12X SYPRO orange dye, 20 μM of the compounds or equivalent percentage of DMSO, and 4–8 µM of the indicated protein. […] The melting temperature (Tm) for each sample was determined using the ViiA7 software (version 1.2.2) and the ΔTm was calculated by subtracting the Tm of the control from the Tm of the compound treated sample.

BRD7 bromodomain = target: T2, BRD7 bromodomain (Homo sapiens, UniProt Q9NPI1); assay: Differential scanning fluorimetry; type: binding; details: BRD7 4–8 μM, compound 20 μM; read-out: DTm
T2 construct: Differential scanning fluorimetry was carried out with the indicated isolated bromodomains at 4–8 μM
T2 sequence (Q9NPI1 131-235 limits assumed): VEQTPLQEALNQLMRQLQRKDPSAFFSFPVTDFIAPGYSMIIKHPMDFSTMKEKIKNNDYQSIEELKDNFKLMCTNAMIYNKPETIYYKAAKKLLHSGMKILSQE
Procedure: as §1

TAF1 BD1 BD2 = target: T3, TAF1 BD1 BD2 (Homo sapiens, UniProt P21675); assay: Differential scanning fluorimetry; type: binding; details: TAF1 BD1 BD2 4–8 μM, compound 20 μM; read-out: DTm
T3 construct: Differential scanning fluorimetry was carried out with the indicated isolated bromodomains at 4–8 μM
T3 sequence (P21675 1397-1628 limits assumed): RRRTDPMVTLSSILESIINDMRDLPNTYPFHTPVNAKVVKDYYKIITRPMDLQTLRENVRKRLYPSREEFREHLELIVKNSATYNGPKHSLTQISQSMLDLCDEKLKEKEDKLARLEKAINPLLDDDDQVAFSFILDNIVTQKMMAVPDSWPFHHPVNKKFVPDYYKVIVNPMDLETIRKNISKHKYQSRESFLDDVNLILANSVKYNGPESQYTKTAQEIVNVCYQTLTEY
Procedure: as §1

PCAF bromodomain = target: T4, PCAF bromodomain (Homo sapiens, UniProt Q92831); assay: Differential scanning fluorimetry; type: binding; details: PCAF 4–8 μM, compound 20 μM; read-out: DTm
T4 construct: Differential scanning fluorimetry was carried out with the indicated isolated bromodomains at 4–8 μM
T4 sequence (Q92831 723-827 limits assumed): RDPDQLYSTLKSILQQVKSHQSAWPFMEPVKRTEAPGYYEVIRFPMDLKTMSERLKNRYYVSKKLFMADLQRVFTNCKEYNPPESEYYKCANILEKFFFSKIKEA
Procedure: as §1

BRD1 bromodomain = target: T5, BRD1 bromodomain (Homo sapiens, UniProt O95696); assay: Differential scanning fluorimetry; type: binding; details: BRD1 4–8 μM, compound 20 μM; read-out: DTm
T5 construct: Differential scanning fluorimetry was carried out with the indicated isolated bromodomains at 4–8 μM
T5 sequence (O95696 562-666 limits assumed): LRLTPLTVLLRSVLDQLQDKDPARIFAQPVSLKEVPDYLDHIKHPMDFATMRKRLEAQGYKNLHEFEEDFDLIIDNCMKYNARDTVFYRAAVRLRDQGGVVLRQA
Procedure: as §1

BAZ1A bromodomain = target: T6, BAZ1A bromodomain (Homo sapiens, UniProt Q9NRL2); assay: Differential scanning fluorimetry; type: binding; details: BAZ1A 4–8 μM, compound 20 μM; read-out: DTm
T6 construct: Differential scanning fluorimetry was carried out with the indicated isolated bromodomains at 4–8 μM
T6 sequence (Q9NRL2 1430-1533 limits assumed): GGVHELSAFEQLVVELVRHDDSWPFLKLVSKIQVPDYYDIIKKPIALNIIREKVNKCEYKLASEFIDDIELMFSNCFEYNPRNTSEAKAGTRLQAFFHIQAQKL
Procedure: as §1

CECR2 bromodomain = target: T7, CECR2 bromodomain (Homo sapiens, UniProt Q9BXF3); assay: Differential scanning fluorimetry; type: binding; details: CECR2 4–8 μM, compound 20 μM; read-out: DTm
T7 construct: Differential scanning fluorimetry was carried out with the indicated isolated bromodomains at 4–8 μM
T7 sequence (Q9BXF3 434-538 limits assumed): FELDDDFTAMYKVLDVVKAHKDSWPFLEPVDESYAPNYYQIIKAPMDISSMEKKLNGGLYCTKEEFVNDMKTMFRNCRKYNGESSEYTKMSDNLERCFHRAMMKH
Procedure: as §1

BRD4 bromodomain = assay: Differential scanning fluorimetry; type: binding; details: BRD4 4–8 μM, compound 20 μM
Procedure: as §1

ASH1L bromodomain = target: T8, ASH1L bromodomain (Homo sapiens, UniProt Q9NR48); assay: Differential scanning fluorimetry; type: binding; details: ASH1L 4–8 μM, compound 20 μM; read-out: DTm
T8 construct: Differential scanning fluorimetry was carried out with the indicated isolated bromodomains at 4–8 μM
Procedure: as §1

GCN5 bromodomain = GCN5 bromodomain (Homo sapiens, UniProt Q92830); assay: Differential scanning fluorimetry; type: binding; details: GCN5 4–8 μM, compound 20 μM; read-out: DTm
Chain of GCN5 bromodomain (Q92830 728-832 limits assumed): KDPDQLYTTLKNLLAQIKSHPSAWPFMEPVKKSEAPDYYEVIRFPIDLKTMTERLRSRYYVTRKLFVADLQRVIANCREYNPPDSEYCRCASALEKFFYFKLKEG
Procedure: as §1

BPTF bromodomain = target: T9, BPTF bromodomain (Homo sapiens, UniProt Q12830); assay: Differential scanning fluorimetry; type: binding; details: BPTF 4–8 μM, compound 20 μM; read-out: DTm
T9 construct: Differential scanning fluorimetry was carried out with the indicated isolated bromodomains at 4–8 μM
Procedure: as §1

BRD8 bromodomain = assay: Differential scanning fluorimetry; type: binding; details: BRD8 4–8 μM, compound 20 μM
Procedure: as §1

BAZ2B bromodomain = target: T10, BAZ2B bromodomain (Homo sapiens, UniProt Q9UIF8); assay: Differential scanning fluorimetry; type: binding; details: BAZ2B 4–8 μM, compound 20 μM; read-out: DTm
T10 construct: Differential scanning fluorimetry was carried out with the indicated isolated bromodomains at 4–8 μM
T10 sequence (Q9UIF8 2060-2164 limits assumed): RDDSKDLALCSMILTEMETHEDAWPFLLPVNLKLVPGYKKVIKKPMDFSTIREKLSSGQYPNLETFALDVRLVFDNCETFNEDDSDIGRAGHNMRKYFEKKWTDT
Procedure: as §1

TRIM24 bromodomain = target: T11, TRIM24 bromodomain (Homo sapiens, UniProt O15164); assay: Differential scanning fluorimetry; type: binding; details: TRIM24 4–8 μM, compound 20 μM; read-out: DTm
T11 construct: Differential scanning fluorimetry was carried out with the indicated isolated bromodomains at 4–8 μM
T11 sequence (O15164 899-1004 limits assumed): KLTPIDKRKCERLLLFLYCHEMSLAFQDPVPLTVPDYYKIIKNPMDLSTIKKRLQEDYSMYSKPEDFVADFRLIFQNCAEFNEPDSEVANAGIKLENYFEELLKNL
Procedure: as §1

BRG1 bromodomain = target: T12, BRG1 bromodomain (Homo sapiens, UniProt P51532); assay: Differential scanning fluorimetry; type: binding; details: BRG1 4–8 μM, compound 20 μM; read-out: DTm
T12 construct: Differential scanning fluorimetry was carried out with the indicated isolated bromodomains at 4–8 μM
T12 sequence (P51532 1453-1564 limits assumed): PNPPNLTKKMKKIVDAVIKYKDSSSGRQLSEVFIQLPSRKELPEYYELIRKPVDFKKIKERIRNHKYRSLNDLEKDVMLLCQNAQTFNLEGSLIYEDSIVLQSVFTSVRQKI
Procedure: as §1

BRPF3 bromodomain = target: T13, BRPF3 bromodomain (Homo sapiens, UniProt Q9ULD4); assay: Differential scanning fluorimetry; type: binding; details: BRPF3 4–8 μM, compound 20 μM; read-out: DTm
T13 construct: Differential scanning fluorimetry was carried out with the indicated isolated bromodomains at 4–8 μM
T13 sequence (Q9ULD4 589-693 limits assumed): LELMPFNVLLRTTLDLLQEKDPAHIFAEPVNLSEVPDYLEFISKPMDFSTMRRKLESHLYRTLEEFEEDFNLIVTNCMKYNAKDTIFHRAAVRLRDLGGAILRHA
Procedure: as §1

WDR9 bromodomain = assay: Differential scanning fluorimetry; type: binding; details: WDR9 4–8 μM, compound 20 μM
Procedure: as §1

BRD9 bromodomain = target: T14, BRD9 bromodomain (Homo sapiens, UniProt Q9H8M2); assay: Differential scanning fluorimetry; type: binding; details: BRD9 4–8 μM, compound 20 μM; read-out: DTm
T14 construct: Differential scanning fluorimetry was carried out with the indicated isolated bromodomains at 4–8 μM
T14 sequence (Q9H8M2 136-240 limits assumed): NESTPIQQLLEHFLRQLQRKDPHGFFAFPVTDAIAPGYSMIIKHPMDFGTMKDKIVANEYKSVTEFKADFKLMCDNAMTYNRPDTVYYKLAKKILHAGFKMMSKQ
Procedure: as §1

IRF4 mRNA = IRF4 mRNA expression, qRT-PCR; type: cell-based, human; details: for IC50: Homo sapiens, read-out: IC50, inhibition of IRF4 mRNA expression; for log2FC (IRF4): 2.5 μM, 6 hr, log2 fold change relative to DMSO
Procedure: Total RNA was prepared with an RNeasy Mini Kit (Qiagen, Inc.; Hilden, Germany) with on column DNAse digestion and submitted to Ocean Ridge Biosciences (Palm Beach Gardens, FL) for sequencing and mapping. The data in RPKM for each gene with compound treatment was compared to DMSO treatment, and log2 fold changes were used for further analysis. Rank ordered gene lists were used for Gene Set Enrichment Analysis ([Subramanian et al., 2005]). RNA preparation, cDNA synthesis, and qRT-PCR were performed as described ([Mertz et al., 2011]). For dose titration experiments, cells in 96 -well plates were lysed in lysis buffer (1% Triton X-100, […] pH 2.5) and used directly for cDNA synthesis and qRT-PCR. Primer sequences can be found in Supplementary file 1.

CBP bromodomain = CBP bromodomain (Homo sapiens, UniProt Q92793); assay: biochemical; details: read-out: DTm
Chain of CBP bromodomain (Q92793 1085-1192 limits assumed): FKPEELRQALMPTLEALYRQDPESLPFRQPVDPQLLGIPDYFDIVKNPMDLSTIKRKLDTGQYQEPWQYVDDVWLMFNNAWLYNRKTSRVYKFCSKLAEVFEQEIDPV

OCI-AML-5 = assay: Viability, resazurin, 6 days; type: cell-based; details: Homo sapiens, 144 h, OCI-AML-5, AML
Procedure: (§2) Cells were plated at 5000–10000 cells per well of 96-well plates containing titrations of the compounds as indicated. After incubation, the cells were incubated with 500 μg/ml resazurin (Sigma) in PBS for 2–8 hr, and fluorescence was measured (Ex 530 nm, Em 590 nm). Cell cycle analysis was performed as described previously ([Mertz et al., 2011]). For visualization, DNA content histograms were generated with GraphPad Prism. Dose-response curves were generated by plotting the normalized percent growth, percent sub-G1 and percent increase in G0/G1 at each dose values. GI50 values were determined as the concentration at which viability was 50% of the DMSO value and calculated by a four-parameter non-linear regression model in GraphPad Prism.

KMS20 = assay: Viability, resazurin, 6 days; type: cell-based; details: Homo sapiens, KMS-20, 144 h, KMS20, myeloma
Procedure: as §2

Chain of CBP-bromodomain/BRD9 ZsGreen fusion protein (Q92793 1085-1192): as the sequence (Q92793 1085-1192 limits assumed) above
Chain of CBP-bromodomain/BRD9 ZsGreen fusion protein (Q9H8M2 with tags, fused parts or gaps partner): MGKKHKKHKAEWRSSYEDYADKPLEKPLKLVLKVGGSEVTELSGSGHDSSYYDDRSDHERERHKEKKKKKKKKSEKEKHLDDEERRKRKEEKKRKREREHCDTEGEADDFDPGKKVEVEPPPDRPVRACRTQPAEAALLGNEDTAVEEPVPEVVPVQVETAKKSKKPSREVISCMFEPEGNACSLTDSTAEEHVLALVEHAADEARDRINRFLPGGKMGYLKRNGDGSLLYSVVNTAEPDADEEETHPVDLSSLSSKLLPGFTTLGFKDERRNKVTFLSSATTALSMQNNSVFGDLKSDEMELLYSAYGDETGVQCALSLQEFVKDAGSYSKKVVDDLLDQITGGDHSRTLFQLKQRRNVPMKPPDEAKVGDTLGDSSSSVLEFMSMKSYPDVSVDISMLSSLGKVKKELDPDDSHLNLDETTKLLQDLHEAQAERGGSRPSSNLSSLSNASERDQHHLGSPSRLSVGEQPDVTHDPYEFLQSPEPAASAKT

ΔTm at 20 µM (BRPF1 bromodomain) [°C]	ΔTm at 20 µM (BRD7 bromodomain) [°C]	ΔTm at 20 µM (TAF1 BD1 BD2) [°C]	ΔTm at 20 µM (PCAF bromodomain) [°C]	ΔTm at 20 µM (BRD1 bromodomain) [°C]	ΔTm at 20 µM (BAZ1A bromodomain) [°C]	ΔTm at 20 µM (CECR2 bromodomain) [°C]	ΔTm at 20 µM (ASH1L bromodomain) [°C]	ΔTm at 20 µM (GCN5 bromodomain) [°C]	ΔTm at 20 µM (BPTF bromodomain) [°C]	ΔTm at 20 µM (BAZ2B bromodomain) [°C]	ΔTm at 20 µM (TRIM24 bromodomain) [°C]	ΔTm at 20 µM (BRG1 bromodomain) [°C]	ΔTm at 20 µM (BRPF3 bromodomain) [°C]	ΔTm at 20 µM (BRD9 bromodomain) [°C]	IC50 (IRF4 mRNA; OPM-2, OPM2, 6 hr) [µM]	IC50 (IRF4 mRNA; LP-1, 6 hr) [µM]	Compound	DTm (BRD4 bromodomain) [°C]	DTm (BRD8 bromodomain) [°C]	DTm (WDR9 bromodomain) [°C]	other results
0.11	0.44	0.12	-0.08	-0.44	0.41	1.46	0.04	0.14	0.93	0.28	0.32	0.38	0.75	0.37	2.9	2	CCC(=O)N1CCOc2c(cc(-c3ccc(OC)c(OC)c3)cc2OC[C@H]2CCCN(C)C2)C1 [I-CBP112]	2.12	0.88	0.04	EC50 [1]: 1.7 ± 0.34 µM; ΔTm at 20 µM (CBP bromodomain): 4.52 °C; GI50 (OCI-AML-5): > 20 µM; GI50 (KMS20): 2.97 µM
0.11	0.5	0.12	-0.08	0.26	0.18	0.76	0.04	-0.09	0.69	-0.06	0.43	0.27	-0.18	0.37	1.1	0.86	COc1ccc(CCc2nc3cc(-c4c(C)noc4C)ccc3n2C[C@H](C)N2CCOCC2)cc1Cl [SGC-CBP30]	2.01	0.76	-0.08	log2FC (IRF4) (IRF4 mRNA; AMO1): -1.36; log2FC (IRF4) (IRF4 mRNA; H929): -0.75; log2FC (IRF4) (IRF4 mRNA; KMM1): -0.53; log2FC (IRF4) (IRF4 mRNA; KMS28BM): -0.93; log2FC (IRF4) (IRF4 mRNA; LP1): -1.23; time to suppression of IRF4 after addition of compound (IRF4 mRNA; LP-1, 2.5 μM): ≤ 2 h; log2FC (IRF4) (IRF4 mRNA; MOLP8): -1.29; log2FC (IRF4) (IRF4 mRNA; OPM2): -0.98; log2FC (IRF4) (IRF4 mRNA; RPMI8226): -0.55; log2FC (IRF4) (IRF4 mRNA; RS411): -0.31; GI50 (OCI-AML-5): > 20 µM; GI50 (KMS20): 1.05 µM

From paper PMC4775225, “Bromodomain inhibition of the transcriptional coactivators CBP/EP300 as a therapeutic strategy to target the IRF4 network in multiple myeloma” (eLife, 2016)
